Values after ≈ are worked out from the molar mass of the structure shown. Active and inactive are the calls of the source. The rule behind the calls is not given here.
What was measured:
Escherichia coli [1] = test: Antimicrobial activity against Escherichia coli at 10 ug/disk; format: functional, organism-based
Staphylococcus aureus [2] = test: Antimicrobial activity against Staphylococcus aureus at 10 ug/disk; format: functional, organism-based
HCT-116 = test: Cytotoxicity against human HCT116 cells; format: functional, cell-based
Escherichia coli [3] = test: Antimicrobial activity against Escherichia coli at 5 ug/disk; format: functional, organism-based
Staphylococcus aureus [4] = test: Antimicrobial activity against Staphylococcus aureus at 5 ug/disk; format: functional, organism-based
Escherichia coli [5] = test: Antimicrobial activity against Escherichia coli at 1 ug/disk; format: functional, organism-based
Staphylococcus aureus [6] = test: Antimicrobial activity against Staphylococcus aureus at 1 ug/disk; format: functional, organism-based

Row | Structure (SMILES) | Activity (Escherichia coli [1]) | Activity (Staphylococcus aureus [2]) | IC50 (HCT-116) [µg/mL] | Activity (Escherichia coli [3]) | Activity (Staphylococcus aureus [4]) | Activity (Escherichia coli [5]) | Activity (Staphylococcus aureus [6])
1 | CC(C)=C1[C@H]2CC/C(C)=C/CC/C(C)=C/C[C@]2(C)C[C@@H]1O (relative stereo) | inactive | inactive | 9 (≈ 31.2 µM) | inactive | inactive | inactive | inactive
2 | CC(C)=C1[C@H](O)C[C@@]2(C)C/C=C(\C)CC/C=C(\C)CC[C@H]12 (relative stereo) [ISOPALOMINOL] | inactive | inactive | 30 (≈ 104 µM) | inactive | inactive | inactive | inactive
3 | CC(C)=C1C(=O)C[C@@]2(C)C/C=C(\C)CC/C=C(\C)CC[C@H]12 [DOLABELLANE] | inactive | inactive | 10 (≈ 34.9 µM) | inactive | inactive | inactive | inactive
4 | C/C1=C\C[C@]2(C)CC=C(C(C)(C)O)[C@H]2CC/C(C)=C/CC1 [PALOMINOL] | inactive | inactive | 10 (≈ 34.7 µM) | inactive | inactive | inactive | inactive
